What all share (experiment): DTP human tumour cell line panel, 48 h
The test system of assay [1] is DU-145 prostate.
Assay [2] deals with HCC-2998 colon.
The test system of assay [3] is MALME-3M melanoma.
In assay [4] the test system is MDA-MB-435.
Assay [5] relates to NCI-H460 lung.
The test system of assay [6] is OVCAR-4 ovarian.
The test system of assay [7] is SK-OV-3 ovarian.
Assay [8] concerns TK-10 renal.
For assay [9], the system named is UACC-62 melanoma.
For assay [10], the system named is MDA-MB-231 breast.

Molecules are shown by their SMILES.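 All cell lines were grown in 96-well plates and treated with compound for 48 hours. GI50 is the concentration that inhibits growth by half. TGI marks complete inhibition of growth.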

As to `COc1ccc(/C=C/c2c(C(=O)/C=C/c3ccc(C(F)(F)F)cc3)c(C)nc3ccccc23)cc1`, the GI50 (in general, the concentration at which growth is held to half of that of the control) is 1.76 µM in assay [1]; 1.51 µM in assay [2]; 1.71 µM in assay [3]; 1.89 µM in assay [4]; 1.87 µM in assay [5]; 1.81 µM in [6]. In addition, the GI50 was 2.24 µM in [7], 2.56 µM in [8] and 1.6 µM in [9]. Moreover, the TGI – broadly, the concentration giving total growth inhibition – was determined as 3.71 µM in assay [1]; 3.07 µM in [2]; 3.19 µM in assay [3]; 3.72 µM in assay [4]; 4.22 µM in assay [5]; 3.67 µM in assay [6]. The TGI in assay [7] turned out to be 5.82 µM; in [8] it was 4.38 µM; in assay [9], 3.42 µM.
Take `Cc1ccc(NC(=O)C(=O)CC(=O)c2c(C)n([O-])c3ccccc3[n+]2=O)cc1C`: the TGI in assay [2], in assay [3], in [5], in assay [6], in [7] and in assay [8] was more than 100 µM throughout. In [9], this molecule displayed a TGI of more than 100 µM.
As for `CCCCCCCC1(c2ccc(N)cc2)CCC(=O)NC1=O` (centres undefined), the concentration for total growth inhibition (TGI) in [2], in assay [3], in [5], in [6], in [7] and in [8] was more than 100 µM in each case. This molecule gave a concentration for total growth inhibition (TGI) in assay [9] of more than 100 µM.
For `CC1OC(=O)C(O)=C1O` (centres undefined), the total growth inhibition concentration (TGI) in assay [2], in assay [3], in assay [5], in [6], in assay [7] and in [8] was more than 100 µM each time. In addition, the TGI in [9] was more than 100 µM.
In the case of `CCN(CC)CC1CCCCN1CC(=O)N1CC(C)C(=O)Nc2ccccc21` (centres undefined), the total growth inhibition concentration (TGI) in assay [2], in [3], in [5], in assay [6], in assay [7] and in assay [9] was more than 100 µM throughout.
For `CC1=C(C(=O)Nc2ccccc2)C(c2ccccc2Cl)C(C(=O)Nc2ccccc2)=C(C)N1`, the TGI was 43.5 µM in assay [2]; 39.7 µM in assay [3]; more than 100 µM in [6]; 80 µM in [7]; more than 100 µM in [8]; 27.2 µM in [9].
For `Clc1ccc(-c2c3ccc(=[N+]4CCCCC4)cc-3oc3cc(N4CCCCC4)ccc23)cc1`, the GI50 in assay [1] is 0.0632 µM; in assay [2], 0.12 µM; in assay [7], 0.204 µM; in assay [8], 0.129 µM; in assay [9], 0.18 µM. Also, the TGI in [1] was 0.214 µM; in assay [2] it was 0.248 µM; in [7] it was 0.715 µM; in [8], 0.345 µM; in assay [9], 0.452 µM.
As to `O=C(O)CCNS(=O)(=O)c1ccc2ccccc2c1`, the TGI in assay [2], in assay [3], in assay [5], in assay [6], in [7] and in assay [8] was more than 100 µM each time. In addition, in assay [9], the TGI was more than 100 µM.
`C1CCCCc2nc3c(nc2CCC1)c1nc2c(nc1c1nc4c(nc31)CCCCCCCC4)CCCCCCCC2`: the TGI in [2], in assay [3], in assay [5], in [7], in assay [8] and in assay [9] was more than 100 µM throughout.
With `COCCOc1cc(C)cc(/C=C(C)/C=C/C2=C(C)CCCC2(C)C)n1`, the TGI in assay [3], in assay [5], in [6], in [7], in assay [8] and in [9] was more than 100 µM throughout.
On to `COc1ccc(C2=Nc3ccccc3SC(C)C2)cc1OC` (centres undefined), for which the TGI in assay [2] was 32.6 µM; in assay [3], 42.8 µM; in [5], 36.3 µM; in assay [6] it was 57.4 µM; in assay [7], 39.5 µM; in assay [8] it was 79.4 µM. For the same molecule, the TGI in [9] was 32.4 µM.
Regarding `N#CC(C(=O)CCCC(=O)Nc1ccc(Cl)cc1Cl)c1ccccc1` (centres undefined), the TGI in assay [2], in assay [3], in assay [5], in assay [6], in assay [7] and in assay [8] was more than 100 µM in each case. This molecule also came in with a TGI in assay [9] of more than 100 µM.
As for `O=C(C(=O)n1ncc(Cl)c(Cl)c1=O)n1ncc(Cl)c(Cl)c1=O`, the TGI in assay [2] is 46.9 µM; in [3] it was 48.1 µM; in [5], more than 100 µM; in [6], 36.1 µM; in assay [7] it was more than 100 µM; in [8], 70.1 µM. In addition, the TGI in [9] worked out at 32.2 µM.
Take `CCCCCC(=O)Nc1nc2nc[nH]c2c(=O)[nH]1`: the TGI in assay [2], in assay [3], in [5], in assay [6], in assay [7] and in assay [8] was more than 100 µM in each case. In [9], this molecule gave a TGI of more than 100 µM.
Regarding `COC1CC(O)C(OC(=O)c2ccccc2)C(C)O1` (centres undefined), the TGI in assay [2], in assay [3], in assay [5], in assay [6], in assay [8] and in assay [9] was more than 100 µM each time.
`COc1ccc2oc3c(OC)c(OC)c(OC)cc3c(=O)c2c1`: the TGI in [2], in [3], in [5], in assay [6], in assay [7] and in assay [8] was more than 100 µM each time. The total growth inhibition concentration (TGI) in assay [9] is more than 100 µM.
Turning to `Cc1ccc(C)c(N2C(=O)C(=O)C(c3nc4ccccc4o3)C(=O)C2=O)c1`, the TGI in [2], in [3], in assay [5], in [6], in assay [7] and in assay [8] was more than 100 µM throughout. The TGI in [9] is more than 100 µM.
For `CCC(C)CC(C)CC(C)/C=C(\C)C1=C(C)CC(C)(O)O1` (centres undefined), the TGI in assay [2], in assay [5], in assay [7], in [8] and in [9] was more than 100 µM throughout.
For the molecule `CCOC(=O)c1cc(-c2ccc(-c3cc(C(=O)OCC)c(C#N)c(N)c3C#N)cc2)c(C#N)c(N)c1C#N`, the TGI in [2], in assay [3], in assay [5], in [6], in [7] and in assay [8] was more than 100 µM throughout. The molecule further displayed a concentration for total growth inhibition (TGI) in [9] of more than 100 µM.
Take `Cc1cccc(C(=O)O)c1C(=O)c1cccc2ccccc12`: the TGI in [2], in assay [3], in assay [5], in assay [6], in assay [7] and in assay [8] was more than 100 µM in each case. The molecule also yielded a TGI in assay [9] of more than 100 µM.
As for `CCC[CH2][Sn]([CH2]CCC)([S]C#N)[S]C#N`, the GI50 was 1.15 µM in assay [2]; 0.753 µM in assay [3]; 2.14 µM in assay [5]; 1.34 µM in [6]; 1.77 µM in assay [7]; 1.11 µM in [8]. For the same molecule, the GI50 in assay [9] is 0.58 µM. Further, the TGI in assay [2] stood at 2.39 µM; in assay [3], 2.27 µM; in assay [5], 4.96 µM; in assay [6], 2.74 µM; in assay [7] it was 3.39 µM; in assay [8] it was 2.4 µM. In addition, the TGI in [9] was 2 µM.
For `N#Cc1ccccc1NC(=O)C(=O)C1NC(=S)NC1=O` (centres undefined), the TGI in assay [2], in assay [3], in assay [5], in assay [6], in assay [8] and in [9] was more than 100 µM throughout.
In the case of `CCOC(=O)/C(=C/c1cccc(Cl)c1)N(CC)CC`, the TGI in assay [2], in assay [3], in assay [5], in [6], in assay [7] and in assay [8] was more than 100 µM each time. In assay [9], this molecule had a TGI of more than 100 µM.
With `COc1ccc(C(=O)c2cc(C)c(OC)c(C)c2)c(OC)c1NC(C)=O`, the GI50 is 0.0483 µM in [1]; 0.31 µM in assay [2]; 1.17 µM in assay [3]; 0.363 µM in [10]; 0.3 µM in assay [5]; 7.68 µM in assay [6]. The GI50 in assay [7] is 0.0674 µM; in assay [8], more than 100 µM; in assay [9], 0.333 µM. Moreover, the TGI in assay [1] was more than 100 µM; in [2], more than 100 µM; in [3], more than 100 µM; in [10] it was more than 100 µM; in assay [5], more than 33.9 µM; in assay [6] it was more than 100 µM. Moreover, the TGI in assay [7], in assay [8] and in assay [9] was more than 100 µM in each case.
Turning to `COc1ccc(-c2ccc(/C=N/n3c(COc4ccccc4Cl)nn(CN4CCOCC4)c3=S)o2)c([N+](=O)[O-])c1`, the GI50 in assay [1] is 34.1 µM; in [2] it was 24.1 µM; in assay [3], 18 µM; in assay [4] it was 17.1 µM; in assay [5], 19.8 µM; in assay [6], 35.1 µM. Further, the GI50 in [7] was 25.7 µM; in assay [8] it was 14.9 µM; in assay [9], 35 µM. The TGI in [1] is more than 100 µM; in assay [2], 56.8 µM; in [3], 44.3 µM; in [4], 42.3 µM; in assay [5], 49 µM; in [6] it was more than 100 µM. Besides, the values for the TGI in assay [7], in assay [8] and in assay [9] were more than 100 µM, 47.9 µM and more than 100 µM, respectively.
`CC1=C(SC#N)S(=O)(=O)N(c2ccccc2)C(C)=C1SC#N`: the concentration for total growth inhibition (TGI) in assay [2] is more than 100 µM; in assay [3] it was more than 100 µM; in assay [5], more than 100 µM; in [6], more than 100 µM; in [7], 89.9 µM; in [8], more than 100 µM. The same molecule returned a TGI in assay [9] of more than 100 µM.
For the molecule `Cc1ccc2nc(NC(=O)C(=O)C(C#N)c3ccc(Cl)cc3)sc2c1` (centres undefined), the TGI in [2], in assay [3], in assay [5], in assay [6], in assay [7] and in [8] was more than 50 µM each time. For the same molecule, the concentration for total growth inhibition (TGI) in assay [9] is more than 50 µM.
In the case of `COc1cc2c(c(OC)c1OC)-c1ccc(SC)c(=O)cc1[C@@H](NCc1ccc([N+](=O)[O-])cc1)CC2`, the total growth inhibition concentration (TGI) was 0.0105 µM in assay [2], more than 100 µM in assay [3] and 51.2 µM in [9].
Consider `C/C(CN1C(=O)c2ccccc2C1=O)=N\NS(=O)(=O)c1cccc(C(=O)O)c1`, for which the TGI in assay [2], in assay [3], in assay [5], in assay [6], in [7] and in assay [8] was more than 100 µM in each case. For the same molecule, the TGI in [9] is more than 100 µM.
As to `NC1c2ccccc2Nc2ccccc21`, the TGI turned out to be 18.1 µM in assay [2]; 19 µM in assay [3]; 11.1 µM in assay [5]; 23.6 µM in assay [7]; 29.8 µM in assay [8]; 15.5 µM in [9].
For `CC(C)c1cc(C(C)C)c(S(=O)(=O)N=[N+]=[N-])c(C(C)C)c1`, the TGI in assay [2], in assay [3], in assay [5], in [6], in assay [7] and in assay [8] was more than 100 µM each time. The molecule further returned a TGI in [9] of more than 100 µM.
On to `CC(C)c1cccc(C(C)C)c1N1C(=O)C(=O)C(c2nc3ccccc3o2)C(=O)C1=O`, for which the TGI in assay [2], in assay [3], in [5], in assay [6], in assay [7] and in assay [8] was more than 100 µM throughout. This molecule also showed a TGI in assay [9] of more than 100 µM.

(Values after PubChem BioAssay (NCI).)
